Results taken from US20240173330A1, “USE OF ATR INHIBITORS IN COMBINATION WITH PARP INHIBITORS FOR TREATING CANCER” (Repare Therapeutics Inc., priority 2021, published 2024).

Columns and labels:
Type in all cases: cell-based
[1] = test system: isogenic cell lines lacking CDK12 or BRCA2; experiment: 48-hr combination treatment of isogenic cell lines lacking CDK12 or BRCA2; details: 48-hr treatment with combination
Source text: The optimized dosing schedule may be applicable to cells carrying mutations not only in RNASEH2B, but additional genes.

[2] = test system: RNASEH2B+/+ and RNASEH2B−/− cells; experiment: Synergy between ATR inhibitor and PARP inhibitor in RNASEH2B+/+ and RNASEH2B−/− cells; details: combination of ATR inhibitor and PARP inhibitor
Source text: An ATR inhibitor (e.g., compound 121) may synergize with a PARP inhibitor (e.g., 5-[4-[(7-ethyl-6-oxo-5H-1,5-naphthyridin-3-yl)methyl]piperazin-1-yl]-N-methyl-pyridine-2-carboxamide) in RNASEH2B+/+ and RNASEH2B−/− cells. Importantly, in RNASEH2B−/− cells, synergy (e.g., maximum synergy) may be achieved at lower concentrations of an ATR inhibitor (e.g., compound 121) and lower concentrations of the PARP inhibitor (e.g., 5-[4-[(7-ethyl-6-oxo-5H-1,5-naphthyridin-3-yl)methyl]piperazin-1-yl]-N-methyl-pyridine-2-carboxamide) than in RNASEH2B+/+ cells. As a result, the apparent IC50 of the PARP inhibitor may shift in the presence of the ATR inhibitor (e.g., compound 121).
In addition to selecting a sensitized genetic background, tolerability of the combination treatment with an ATR inhibitor and PARP inhibitor can be improved by optimizing dosing schedules (Fang et al., Cancer Cell, 35:851-867, 2019). To guide the combined dosing of the ATR inhibitor (e.g., compound 121) and the PARP inhibitor (e.g., 5-[4-[(7-ethyl-6-oxo-5H-1,5-naphthyridin-3-yl)methyl]piperazin-1-yl]-N-methyl-pyridine-2-carboxamide) in RNASEH2B-deficient tumor cells, a continuous longer (e.g., 168 h) concomitant treatment of RNASEH2B+/+ and −/− cells with both compounds may be compared to a shorter (e.g., either a 48 or 72 h) treatment followed by removal of compounds and growth in drug-free media. […]

[3] = test system: tumor cells that employ the Alternative Lengthening of Telomeres (ALT) mechanism; experiment: Combination against ALT tumor cells; details: combination of ATR inhibitor with PARP inhibitor
Source text: In addition to tumors carrying the above-mentioned genetic alterations, the combination of ATR inhibitors (e.g., Compound 121) with PARP inhibitors (e.g., 5-[4-[(7-ethyl-6-oxo-5H-1,5-naphthyridin-3-yl)methyl]piperazin-1-yl]-N-methyl-pyridine-2-carboxamide) may be effective against tumor cells that employ the Alternative Lengthening of Telomeres (ALT) mechanism.

Structure (SMILES): CCc1cc2ncc(CN3CCN(c4ccc(C(=O)NC)nc4)CC3)cc2[nH]c1=O [5-[4-[(7-ethyl-6-oxo-5H-1,5-naphthyridin-3-yl)methyl]piperazin-1-yl]-N-methyl-pyridine-2-carboxamide]
- synergistic sensitization [1]: synergistically sensitize
- synergy of ATR inhibitor with PARP inhibitor [2]: synergize
- effectiveness of combination against ALT tumor cells [3]: effective

Structure (SMILES): C[C@@H]1COCCN1c1cc([C@@]2(O)C[C@H]3CC[C@@H](C2)O3)c2cnn(-c3cc[nH]n3)c2n1 [compound 121]
- synergistic sensitization [1]: synergistically sensitize
- synergy of ATR inhibitor with PARP inhibitor [2]: synergize
- effectiveness of combination against ALT tumor cells [3]: effective
